Results: PubChem BioAssay AID1963965 (Molecular Pharmacology Branch, DTP, NCI, 2024)
Each block holds one molecule with its values, some of them ahead of it.

Test system: 996289-038-R-J1-PDC spheroid viability
Test: Anticancer human tumor 996289-038-R-J1-PDC patient-derived colon adenocarcinoma cell line growth inhibition [PI3K]
Conditions: spheroids with HUVEC and MSC; for IC50: curve of first compound; for viability, T/C: stronger effect = lower value
Procedure, shortened: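 Agents were dosed from a top concentration near clinical Cmax (otherwise 10 microM) in half-log decrements, alone or combined with PI3K inhibitors. The spheroids contain tumor cells plus endothelial (HUVEC) and MSC stroma; viability is measured.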

[1] = second compound 0.0316 µM, first compound 0.0316 µM
[2] = second compound 0.0316 µM, first compound 0.1 µM
[3] = second compound 0.0316 µM, first compound 0.316 µM
[4] = second compound 0.0316 µM, first compound 1 µM
[5] = second compound 0.0316 µM, first compound 3.16 µM
[6] = second compound 0.0316 µM, first compound 10 µM
[7] = second compound 0.1 µM, first compound 0.0316 µM
[8] = second compound 0.1 µM, first compound 0.1 µM
[9] = second compound 0.1 µM, first compound 0.316 µM
[10] = second compound 0.1 µM, first compound 1 µM
[11] = second compound 0.1 µM, first compound 3.16 µM
[12] = second compound 0.1 µM, first compound 10 µM
[13] = second compound 0.316 µM, first compound 0.0316 µM
[14] = second compound 0.316 µM, first compound 0.1 µM
[15] = second compound 0.316 µM, first compound 0.316 µM
[16] = second compound 0.316 µM, first compound 1 µM
[17] = second compound 0.316 µM, first compound 3.16 µM
[18] = second compound 0.316 µM, first compound 10 µM
[19] = second compound 1 µM, first compound 0.0316 µM
[20] = second compound 1 µM, first compound 0.1 µM
[21] = second compound 1 µM, first compound 0.316 µM
[22] = second compound 1 µM, first compound 1 µM
[23] = second compound 1 µM, first compound 3.16 µM
[24] = second compound 1 µM, first compound 10 µM
[25] = second compound 3.16 µM, first compound 0.0316 µM
[26] = second compound 3.16 µM, first compound 0.1 µM
[27] = second compound 3.16 µM, first compound 0.316 µM
[28] = second compound 3.16 µM, first compound 1 µM
[29] = second compound 3.16 µM, first compound 3.16 µM
[30] = second compound 3.16 µM, first compound 10 µM
[31] = second compound 10 µM, first compound 0.0316 µM
[32] = second compound 10 µM, first compound 0.1 µM
[33] = second compound 10 µM, first compound 0.316 µM
[34] = second compound 10 µM, first compound 1 µM
[35] = second compound 10 µM, first compound 3.16 µM
[36] = second compound 10 µM, first compound 10 µM
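Also: spheroids exposed to compounds for seven days before viability read.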
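For viability, T/C in this document: luminescence used as a proxy for viable cell amount; percent viability relative to DMSO vehicle control as 100%.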

IC50 (second compound 0.0316 µM): 9.83 µM | IC50 (second compound 0.1 µM): 8.62 µM | IC50 (second compound 0.316 µM): 8.31 µM | IC50 (second compound 1 µM): 6.15 µM | IC50 (second compound 3.16 µM): 4.84 µM | IC50 (second compound 10 µM): < 0.0316 µM
SMILES: CC1(C)CCC(CN2CCN(c3ccc(C(=O)NS(=O)(=O)c4ccc(NCC5CCOCC5)c([N+](=O)[O-])c4)c(Oc4cnc5[nH]ccc5c4)c3)CC2)=C(c2ccc(Cl)cc2)C1 + Cc1nc(NC(=O)N2CCCC2C(N)=O)sc1-c1ccnc(C(C)(C)C(F)(F)F)c1
viability, T/C [1]: 94% | viability, T/C [2]: 91.8% | viability, T/C [3]: 105% | viability, T/C [4]: 110% | viability, T/C [5]: 96.9% | viability, T/C [6]: 49.3% | viability, T/C [7]: 95.2% | viability, T/C [8]: 102% | viability, T/C [9]: 88.1% | viability, T/C [10]: 102% | viability, T/C [11]: 105% | viability, T/C [12]: 42.8% | viability, T/C [13]: 88.8% | viability, T/C [14]: 84.9% | viability, T/C [15]: 95.9% | viability, T/C [16]: 93.2% | viability, T/C [17]: 92.5% | viability, T/C [18]: 42.1% | viability, T/C [19]: 68.6% | viability, T/C [20]: 83.4% | viability, T/C [21]: 67.8% | viability, T/C [22]: 82.6% | viability, T/C [23]: 75.8% | viability, T/C [24]: 31.6% | viability, T/C [25]: 66.3% | viability, T/C [26]: 60.9% | viability, T/C [27]: 60.4% | viability, T/C [28]: 61% | viability, T/C [29]: 62.6% | viability, T/C [30]: 29.3% | viability, T/C [31]: 34.9% | viability, T/C [32]: 41.8% | viability, T/C [33]: 42.2% | viability, T/C [34]: 54.4% | viability, T/C [35]: 45.1% | viability, T/C [36]: 15.4%

IC50 (second compound 0.0316 µM): 5.9 µM | IC50 (second compound 0.1 µM): 5.51 µM | IC50 (second compound 0.316 µM): 5.54 µM | IC50 (second compound 1 µM): 3.45 µM | IC50 (second compound 3.16 µM): 1.52 µM | IC50 (second compound 10 µM): 0.0316 µM
SMILES: CCCS(=O)(=O)Nc1ccc(F)c(C(=O)c2c[nH]c3ncc(-c4ccc(Cl)cc4)cc23)c1F + Cc1nc(NC(=O)N2CCCC2C(N)=O)sc1-c1ccnc(C(C)(C)C(F)(F)F)c1
viability, T/C [1]: 90.2% | viability, T/C [2]: 86.1% | viability, T/C [3]: 108% | viability, T/C [4]: 96.1% | viability, T/C [5]: 82.6% | viability, T/C [6]: 22% | viability, T/C [7]: 95.9% | viability, T/C [8]: 87.7% | viability, T/C [9]: 91.6% | viability, T/C [10]: 88.3% | viability, T/C [11]: 79.5% | viability, T/C [12]: 18.5% | viability, T/C [13]: 84.2% | viability, T/C [14]: 84.8% | viability, T/C [15]: 80.2% | viability, T/C [16]: 81.3% | viability, T/C [17]: 70.5% | viability, T/C [18]: 28.3% | viability, T/C [19]: 70.4% | viability, T/C [20]: 79.6% | viability, T/C [21]: 70.5% | viability, T/C [22]: 66.7% | viability, T/C [23]: 53.1% | viability, T/C [24]: 17% | viability, T/C [25]: 61.1% | viability, T/C [26]: 63.5% | viability, T/C [27]: 57.3% | viability, T/C [28]: 54.1% | viability, T/C [29]: 43.2% | viability, T/C [30]: 15.4% | viability, T/C [31]: 44% | viability, T/C [32]: 44.8% | viability, T/C [33]: 43.3% | viability, T/C [34]: 53.2% | viability, T/C [35]: 31.9% | viability, T/C [36]: 11.5%
